Data: ChEMBL document CHEMBL5055626 (J Med Chem, 2021)
Calls of active or inactive are those of the source. No cut-off for these calls is given here. Where a SMILES comes first, the peptide text is derived from it. Bridges are numbered along the chain shown (N, C = ends).

Assays:
[1] = molecular target: Neuronal acetylcholine receptor; alpha2/beta2 (Rattus norvegicus, UniProt P12389+P12390); assay: Antagonist activity at rat alpha2beta2 nAChR expressed in xenopus oocytes assessed as inhibition of Ach- induced response at -70 mV holding potential preincubated for 5 mins followed by Ach stimulation by voltage-clamp based electrophysiological method; type: cell-based, Oocyte
[2] = molecular target: Neuronal acetylcholine receptor; alpha2/beta4 (Rattus norvegicus) (UniProt P12389+P12392); assay: Antagonist activity at rat alpha2beta4 nAChR expressed in xenopus oocytes assessed as inhibition of Ach- induced response at 10 uM at -70 mV holding potential preincubated for 5 mins followed by Ach stimulation by voltage-clamp based electrophysiological method; type: cell-based; conditions: Oocyte
[3] = molecular target: Nicotinic acetylcholine receptor alpha9/alpha10 (Rattus norvegicus) (UniProt P43144+Q9JLB5); assay: Antagonist activity at rat alpha9alpha10 nAChR expressed in xenopus oocytes assessed as inhibition of Ach- induced response at 10 uM at -70 mV holding potential preincubated for 5 mins followed by Ach stimulation by voltage-clamp based electrophysiological method; type: cell-based; conditions: Oocyte
[4] = molecular target: Neuronal acetylcholine receptor; alpha2/beta4 (Rattus norvegicus, UniProt P12389+P12392); assay: Antagonist activity at rat alpha2beta4 nAChR expressed in xenopus oocytes assessed as inhibition of Ach- induced response at -70 mV holding potential preincubated for 5 mins followed by Ach stimulation by voltage-clamp based electrophysiological method; type: cell-based, Oocyte
[5] = molecular target: Neuronal acetylcholine receptor; alpha2/beta2 (Rattus norvegicus) (UniProt P12389+P12390); assay: Antagonist activity at rat alpha2beta2 nAChR expressed in xenopus oocytes assessed as inhibition of Ach- induced response at 10 uM at -70 mV holding potential preincubated for 5 mins followed by Ach stimulation by voltage-clamp based electrophysiological method; type: cell-based; conditions: Oocyte
[6] = molecular target: T1, Nicotinic acetylcholine receptor alpha6/alpha3/beta4 (Homo sapiens, UniProt P30926+P32297+Q15825); assay: Antagonist activity at rat alpha6/alpha3beta4 nAChR expressed in xenopus oocytes assessed as inhibition of Ach- induced response at -70 mV holding potential preincubated for 5 mins followed by Ach stimulation by voltage-clamp based electrophysiological method; type: cell-based, Oocyte
[7] = molecular target: Neuronal acetylcholine receptor; alpha4/beta2 (Rattus norvegicus) (UniProt P09483+P12390); assay: Antagonist activity at rat alpha4beta2 nAChR expressed in xenopus oocytes assessed as inhibition of Ach- induced response at 10 uM at -70 mV holding potential preincubated for 5 mins followed by Ach stimulation by voltage-clamp based electrophysiological method; type: cell-based; conditions: Oocyte
[8] = molecular target: Neuronal acetylcholine receptor; alpha3/beta4 (Rattus norvegicus) (UniProt P04757+P12392); assay: Antagonist activity at rat alpha3beta4 nAChR expressed in xenopus oocytes assessed as inhibition of Ach- induced response at 10 uM at -70 mV holding potential preincubated for 5 mins followed by Ach stimulation by voltage-clamp based electrophysiological method; type: cell-based; conditions: Oocyte
[9] = molecular target: Neuronal acetylcholine receptor; alpha4/beta4 (Rattus norvegicus, UniProt P09483+P12392); assay: Antagonist activity at rat alpha4beta4 nAChR expressed in xenopus oocytes assessed as inhibition of Ach- induced response at -70 mV holding potential preincubated for 5 mins followed by Ach stimulation by voltage-clamp based electrophysiological method; type: cell-based, Oocyte
[10] = molecular target: Neuronal acetylcholine receptor; alpha3/beta4 (Rattus norvegicus, UniProt P04757+P12392); assay: Antagonist activity at rat alpha3beta4 nAChR expressed in xenopus oocytes assessed as inhibition of Ach- induced response at -70 mV holding potential preincubated for 5 mins followed by Ach stimulation by voltage-clamp based electrophysiological method; type: cell-based, Oocyte
[11] = Antagonist activity at rat alpha6/ alpha3beta2beta3 nAChR expressed in xenopus oocytes assessed as inhibition of Ach- induced response at -70 mV holding potential preincubated for 5 mins followed by Ach stimulation by voltage-clamp based electrophysiological method; type: cell-based; conditions: Oocyte
[12] = molecular target: Neuronal acetylcholine receptor subunit alpha-7 (Rattus norvegicus, UniProt Q05941); assay: Antagonist activity at rat alpha7 nAChR expressed in xenopus oocytes assessed as inhibition of Ach- induced response at -70 mV holding potential preincubated for 5 mins followed by Ach stimulation by voltage-clamp based electrophysiological method; type: cell-based, Oocyte
[13] = molecular target: Neuronal acetylcholine receptor; alpha4/beta4 (Rattus norvegicus) (UniProt P09483+P12392); assay: Antagonist activity at rat alpha4beta4 nAChR expressed in xenopus oocytes assessed as inhibition of Ach- induced response at 10 uM at -70 mV holding potential preincubated for 5 mins followed by Ach stimulation by voltage-clamp based electrophysiological method; type: cell-based; conditions: Oocyte
[14] = molecular target: Neuronal acetylcholine receptor; alpha4/beta2 (Rattus norvegicus, UniProt P09483+P12390); assay: Antagonist activity at rat alpha4beta2 nAChR expressed in xenopus oocytes assessed as inhibition of Ach- induced response at -70 mV holding potential preincubated for 5 mins followed by Ach stimulation by voltage-clamp based electrophysiological method; type: cell-based, Oocyte
[15] = molecular target: Neuronal acetylcholine receptor; alpha3/beta2 (Rattus norvegicus, UniProt P04757+P12390); assay: Antagonist activity at rat alpha3beta2 nAChR expressed in xenopus oocytes assessed as inhibition of Ach- induced response at -70 mV holding potential preincubated for 5 mins followed by Ach stimulation by voltage-clamp based electrophysiological method; type: cell-based, Oocyte
[16] = molecular target: Nicotinic acetylcholine receptor alpha9/alpha10 (Rattus norvegicus, UniProt P43144+Q9JLB5); assay: Antagonist activity at rat alpha9alpha10 nAChR expressed in xenopus oocytes assessed as inhibition of Ach- induced response at -70 mV holding potential preincubated for 5 mins followed by Ach stimulation by voltage-clamp based electrophysiological method; type: cell-based, Oocyte
[17] = molecular target: T1, Nicotinic acetylcholine receptor alpha6/alpha3/beta4; assay: Antagonist activity at rat alpha6/alpha3beta4 nAChR expressed in xenopus oocytes assessed as inhibition of Ach- induced response at 10^-5 M at -70 mV holding potential preincubated for 5 mins followed by Ach stimulation by voltage-clamp based electrophysiological method relative to control; type: cell-based; design: scale not given: the % may be the effect or the level left; conditions: Oocyte, filed as antagonist, dose 1.0 10^-5M
[18] = molecular target: Neuronal acetylcholine receptor; alpha3/beta2 (Rattus norvegicus) (UniProt P04757+P12390); assay: Antagonist activity at rat alpha3beta2 nAChR expressed in xenopus oocytes assessed as inhibition of Ach- induced response at 10^-5 M at -70 mV holding potential preincubated for 5 mins followed by Ach stimulation by voltage-clamp based electrophysiological method relative to control; type: cell-based; design: scale not given: the % may be the effect or the level left; conditions: Oocyte, filed as antagonist, dose 1.0 10^-5M

Sequence of Nicotinic acetylcholine receptor alpha9/alpha10 (P43144 whole entry): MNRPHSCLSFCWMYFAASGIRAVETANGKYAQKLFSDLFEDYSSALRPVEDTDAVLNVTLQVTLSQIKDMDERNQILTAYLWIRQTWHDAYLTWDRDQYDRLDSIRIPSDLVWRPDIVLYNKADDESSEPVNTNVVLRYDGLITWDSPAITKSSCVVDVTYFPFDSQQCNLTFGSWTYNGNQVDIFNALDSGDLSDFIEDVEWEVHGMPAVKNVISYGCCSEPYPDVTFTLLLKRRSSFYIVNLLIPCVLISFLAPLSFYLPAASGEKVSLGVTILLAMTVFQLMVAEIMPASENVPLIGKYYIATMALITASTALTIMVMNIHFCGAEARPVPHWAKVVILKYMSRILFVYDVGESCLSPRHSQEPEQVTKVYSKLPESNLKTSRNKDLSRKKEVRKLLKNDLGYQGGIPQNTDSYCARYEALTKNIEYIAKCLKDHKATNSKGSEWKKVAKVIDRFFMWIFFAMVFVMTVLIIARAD
Sequence of Nicotinic acetylcholine receptor alpha9/alpha10 (Q9JLB5 whole entry): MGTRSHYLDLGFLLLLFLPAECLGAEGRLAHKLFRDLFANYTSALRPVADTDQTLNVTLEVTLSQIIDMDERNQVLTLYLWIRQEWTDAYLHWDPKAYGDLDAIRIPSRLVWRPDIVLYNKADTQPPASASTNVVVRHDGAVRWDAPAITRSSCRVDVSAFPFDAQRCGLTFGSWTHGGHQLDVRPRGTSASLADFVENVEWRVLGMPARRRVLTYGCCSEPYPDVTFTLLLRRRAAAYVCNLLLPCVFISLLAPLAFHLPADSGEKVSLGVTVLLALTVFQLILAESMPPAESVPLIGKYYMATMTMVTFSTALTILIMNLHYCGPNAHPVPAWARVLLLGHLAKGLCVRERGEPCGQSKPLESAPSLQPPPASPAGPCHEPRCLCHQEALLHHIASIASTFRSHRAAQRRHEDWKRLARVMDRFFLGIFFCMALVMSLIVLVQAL
Sequence of Neuronal acetylcholine receptor subunit alpha-7 (Q05941 whole entry): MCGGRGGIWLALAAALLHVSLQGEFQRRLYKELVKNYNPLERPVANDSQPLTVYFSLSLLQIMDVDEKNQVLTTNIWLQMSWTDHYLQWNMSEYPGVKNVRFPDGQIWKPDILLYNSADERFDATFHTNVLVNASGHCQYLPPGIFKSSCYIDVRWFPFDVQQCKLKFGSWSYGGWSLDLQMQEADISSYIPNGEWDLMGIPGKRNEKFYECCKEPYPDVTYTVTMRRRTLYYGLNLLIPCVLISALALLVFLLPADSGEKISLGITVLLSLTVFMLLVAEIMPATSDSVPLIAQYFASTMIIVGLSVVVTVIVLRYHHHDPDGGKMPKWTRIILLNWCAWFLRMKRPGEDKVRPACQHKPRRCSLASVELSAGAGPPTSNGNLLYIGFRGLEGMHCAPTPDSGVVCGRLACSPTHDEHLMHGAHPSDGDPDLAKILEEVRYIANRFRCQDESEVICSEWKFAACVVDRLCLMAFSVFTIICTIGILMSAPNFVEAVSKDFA
T1 sequence (P30926 whole entry): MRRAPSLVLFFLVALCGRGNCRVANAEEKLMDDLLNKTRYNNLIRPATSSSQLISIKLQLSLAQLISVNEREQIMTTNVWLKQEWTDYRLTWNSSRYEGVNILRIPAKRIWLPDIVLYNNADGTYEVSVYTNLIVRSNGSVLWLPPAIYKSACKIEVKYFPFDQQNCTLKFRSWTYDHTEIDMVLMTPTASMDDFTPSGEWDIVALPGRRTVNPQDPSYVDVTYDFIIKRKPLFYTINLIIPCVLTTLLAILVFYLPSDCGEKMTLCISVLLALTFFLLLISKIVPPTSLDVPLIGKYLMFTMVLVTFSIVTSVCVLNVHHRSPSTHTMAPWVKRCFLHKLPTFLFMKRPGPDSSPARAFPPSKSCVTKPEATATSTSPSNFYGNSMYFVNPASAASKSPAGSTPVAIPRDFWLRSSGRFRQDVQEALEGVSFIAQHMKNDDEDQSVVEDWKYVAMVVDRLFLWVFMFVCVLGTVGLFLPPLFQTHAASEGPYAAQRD
T1 sequence (P32297 whole entry): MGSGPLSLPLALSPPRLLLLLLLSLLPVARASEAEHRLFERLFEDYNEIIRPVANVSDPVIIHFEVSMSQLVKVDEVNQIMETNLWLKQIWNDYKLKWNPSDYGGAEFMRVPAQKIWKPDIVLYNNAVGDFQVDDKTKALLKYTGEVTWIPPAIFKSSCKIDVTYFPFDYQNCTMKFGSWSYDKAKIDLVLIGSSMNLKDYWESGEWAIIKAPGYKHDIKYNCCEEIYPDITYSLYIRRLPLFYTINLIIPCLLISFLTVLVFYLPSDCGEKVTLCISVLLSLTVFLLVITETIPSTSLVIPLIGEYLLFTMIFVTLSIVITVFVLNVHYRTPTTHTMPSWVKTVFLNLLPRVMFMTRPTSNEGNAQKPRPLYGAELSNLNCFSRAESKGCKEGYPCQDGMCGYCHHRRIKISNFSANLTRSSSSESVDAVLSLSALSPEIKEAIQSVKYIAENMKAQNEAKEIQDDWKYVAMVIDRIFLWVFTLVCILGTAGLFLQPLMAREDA
T1 sequence (Q15825 whole entry): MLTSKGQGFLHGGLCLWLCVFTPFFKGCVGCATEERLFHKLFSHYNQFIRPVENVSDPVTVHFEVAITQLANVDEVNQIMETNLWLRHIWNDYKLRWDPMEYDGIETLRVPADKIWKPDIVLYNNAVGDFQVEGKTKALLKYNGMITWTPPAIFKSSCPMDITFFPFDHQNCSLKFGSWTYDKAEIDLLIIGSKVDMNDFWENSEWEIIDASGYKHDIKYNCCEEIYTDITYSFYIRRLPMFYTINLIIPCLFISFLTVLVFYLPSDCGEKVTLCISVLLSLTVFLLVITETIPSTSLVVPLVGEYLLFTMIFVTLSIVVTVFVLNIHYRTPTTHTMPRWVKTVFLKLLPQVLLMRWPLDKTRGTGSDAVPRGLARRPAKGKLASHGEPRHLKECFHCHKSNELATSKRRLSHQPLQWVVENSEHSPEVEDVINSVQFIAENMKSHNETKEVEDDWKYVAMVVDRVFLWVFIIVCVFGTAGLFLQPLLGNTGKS
Sequence of Neuronal acetylcholine receptor; alpha4/beta2 (P09483 whole entry): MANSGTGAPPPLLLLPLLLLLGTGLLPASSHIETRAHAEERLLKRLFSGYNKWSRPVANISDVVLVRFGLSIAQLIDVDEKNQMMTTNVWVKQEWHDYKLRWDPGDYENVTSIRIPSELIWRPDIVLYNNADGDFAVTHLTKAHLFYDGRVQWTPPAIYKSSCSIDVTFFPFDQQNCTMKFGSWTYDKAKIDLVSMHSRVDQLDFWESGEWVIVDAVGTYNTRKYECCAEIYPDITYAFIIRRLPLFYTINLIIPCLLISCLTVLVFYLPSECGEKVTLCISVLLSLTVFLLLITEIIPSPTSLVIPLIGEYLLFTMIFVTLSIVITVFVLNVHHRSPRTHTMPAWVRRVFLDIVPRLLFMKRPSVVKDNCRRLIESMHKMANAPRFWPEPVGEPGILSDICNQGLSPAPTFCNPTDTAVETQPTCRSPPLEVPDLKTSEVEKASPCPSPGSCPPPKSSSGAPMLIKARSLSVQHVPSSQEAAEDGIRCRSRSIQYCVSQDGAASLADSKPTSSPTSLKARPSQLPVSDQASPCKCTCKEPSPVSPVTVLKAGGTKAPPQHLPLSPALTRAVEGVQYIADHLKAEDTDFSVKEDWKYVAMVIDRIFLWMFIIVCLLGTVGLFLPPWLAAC
Sequence of Neuronal acetylcholine receptor; alpha4/beta2 (P12390 whole entry): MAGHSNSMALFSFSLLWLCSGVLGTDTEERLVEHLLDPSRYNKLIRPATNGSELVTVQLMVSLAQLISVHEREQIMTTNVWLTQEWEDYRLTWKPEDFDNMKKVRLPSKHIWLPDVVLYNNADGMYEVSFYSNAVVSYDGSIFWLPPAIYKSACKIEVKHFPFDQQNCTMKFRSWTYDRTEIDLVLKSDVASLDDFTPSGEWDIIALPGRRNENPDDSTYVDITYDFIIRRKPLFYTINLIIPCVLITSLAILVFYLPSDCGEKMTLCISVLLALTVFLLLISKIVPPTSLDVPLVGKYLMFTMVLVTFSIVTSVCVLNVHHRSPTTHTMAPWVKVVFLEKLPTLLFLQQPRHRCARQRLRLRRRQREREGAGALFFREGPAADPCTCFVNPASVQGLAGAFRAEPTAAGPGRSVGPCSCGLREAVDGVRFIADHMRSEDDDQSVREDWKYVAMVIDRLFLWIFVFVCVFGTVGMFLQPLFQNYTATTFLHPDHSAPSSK
Sequence of Neuronal acetylcholine receptor; alpha4/beta4 (P09483 whole entry): as the sequence (P09483 whole entry) above
Sequence of Neuronal acetylcholine receptor; alpha4/beta4 (P12392 whole entry): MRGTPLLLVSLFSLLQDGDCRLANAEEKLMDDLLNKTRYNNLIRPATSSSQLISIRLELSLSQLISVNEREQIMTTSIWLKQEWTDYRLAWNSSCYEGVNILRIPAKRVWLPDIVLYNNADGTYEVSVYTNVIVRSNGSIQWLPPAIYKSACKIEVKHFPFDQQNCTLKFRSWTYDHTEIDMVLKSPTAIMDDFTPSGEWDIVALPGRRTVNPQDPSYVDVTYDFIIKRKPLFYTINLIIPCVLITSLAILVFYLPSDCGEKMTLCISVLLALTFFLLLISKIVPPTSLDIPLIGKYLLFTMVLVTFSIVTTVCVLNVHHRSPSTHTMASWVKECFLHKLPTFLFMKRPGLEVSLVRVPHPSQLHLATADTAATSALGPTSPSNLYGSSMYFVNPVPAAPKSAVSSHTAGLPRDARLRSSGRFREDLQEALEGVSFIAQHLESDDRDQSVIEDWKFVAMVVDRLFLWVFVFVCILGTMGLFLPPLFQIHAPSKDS

For C[C@@H]1NC(=O)[C@@H]2CSSC[C@H](N)C(=O)N[C@@H](CSSC[C@@H](C(N)=O)NC(=O)[C@H](Cc3cnc[nH]3)NC(=O)[C@H](CCC(=O)O)NC(=O)[C@H](Cc3cnc[nH]3)NC1=O)C(=O)N[C@@H](CO)C(=O)N[C@@H](CC(N)=O)C(=O)N1CCC[C@H]1C(=O)N1CCC[C@H]1C(=O)N2 (H-CCSNPPCAHEHC-NH2; disulfide 1-7, 2-12), the IC50 [1] was > 10 µM, the inhibition [2] was “inactive” and the inhibition [3] was “inactive”. For the same compound, the IC50 [4] was > 10 µM, the inhibition [5] was “inactive” and the IC50 [6] was > 10 µM. For the same compound, the inhibition [7] was “inactive”, the inhibition [8] was “inactive” and the IC50 [9] was > 10 µM. For the same compound, the IC50 [10] was > 10 µM, the IC50 [11] was 3.3 µM and the IC50 [12] was 1.81 µM. The inhibition [13] was “inactive”, the IC50 [14] was > 10 µM and the IC50 [15] was 4.63 µM. The IC50 [16] was > 10 µM and the Activity [17] was < 50%.
In the case of C[C@@H]1NC(=O)[C@@H]2CSSC[C@H](NC(=O)[C@@H](N)CCC(N)=O)C(=O)N[C@@H](CSSC[C@@H](C(=O)N[C@@H](CCCNC(=N)N)C(=O)O)NC(=O)[C@H](Cc3cnc[nH]3)NC(=O)[C@H](CCC(=O)O)NC(=O)[C@H](Cc3cnc[nH]3)NC1=O)C(=O)N[C@@H](CO)C(=O)N[C@@H](CC(N)=O)C(=O)N1CCC[C@H]1C(=O)N1CCC[C@H]1C(=O)N2 (H-QCCSNPPCAHEHCR-OH; disulfide 2-8, 3-13), the IC50 [1] is reported as > 10 µM, the inhibition [2] is reported as “inactive” and the inhibition [3] is reported as “inactive”. For the same compound, the IC50 [4] was > 10 µM, the inhibition [5] was “inactive” and the IC50 [6] was > 10 µM. The inhibition [7] was “inactive”, the inhibition [8] was “inactive” and the IC50 [9] was > 10 µM. The IC50 [10] was > 10 µM, the IC50 [11] was 5.3 µM and the IC50 [12] was 1.76 µM. The inhibition [13] was “inactive”, the IC50 [14] was > 10 µM and the IC50 [15] was > 10 µM. The IC50 [16] was > 10 µM and the Activity [18] was < 50%.
